{
  "source": "patent US6713950B2",
  "about": "“Low volatility slurry for emission mix powder” (General Electric Company, priority 2001, dated 2004)",
  "origin": "cited, not measured here",
  "test_system": "rats",
  "data": [
    {"substance": "polyethylene glycol 200 [PEG 200]", "values": [
      {"measurement": "oral LD50", "value": 28, "unit": "g/kg"}
    ]}
  ]
}
